From ChEMBL document CHEMBL1772933, “Didemnidines A and B, indole spermidine alkaloids from the New Zealand ascidian Didemnum sp” (J Nat Prod, 2011) come the findings set out here.

Activity calls are given as the source filed them. The rule behind the calls is not given here.

One assay deals with L6. Description: Cytotoxicity against rat L6 cells after 72 hrs by alamar blue assay. The class given is cell-based. The note with it: L6, 72 h. On the technique in general: Alamar Blue is a resazurin reagent that responds to reducing activity.
Assay [1] addresses T1, Phospholipase A2 (Apis mellifera) (UniProt P00630).
T1 sequence (whole entry): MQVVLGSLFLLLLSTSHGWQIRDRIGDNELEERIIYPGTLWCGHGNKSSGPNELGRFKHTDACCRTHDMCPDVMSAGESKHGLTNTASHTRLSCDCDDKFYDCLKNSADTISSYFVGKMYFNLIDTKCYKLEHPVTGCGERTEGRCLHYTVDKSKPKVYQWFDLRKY
Description: Inhibition of Apis mellifera venom PLA2 by colorimetric bioassay.

Another assay relates to Plasmodium falciparum. Description: Antimalarial activity against chloroquine- and pyrimethamine-resistant Plasmodium falciparum K1 assessed as [3H]-hypoxanthine incorporation after 48 hrs by liquid scintillation counting. The class given is functional, organism-based.
Assay [2] has as its system Trypanosoma brucei rhodesiense. Description: Antiparasitic activity against bloodstream form of Trypanosoma brucei rhodesiense STIB 900 after 72 hrs by microplate reader assay. The class given is functional, organism-based. The note with it: STIB 900, 72 h.
The subject of another assay is Saccharomyces cerevisiae. Nature of the assay: Inhibition of yeast FTase in presence of farnesyl pyrophosphate.
In the next assay the test system is Trypanosoma cruzi. Description: Antiparasitic activity against intracellular amastigotes of Trypanosoma cruzi Tulahuen C2C4 expressing LacZ gene infected in rat L6 cells after 96 hrs by photometrically. It counts as functional, organism-based. The note with it: Tulahuen C2C4, L6, 96 h.
A further assay deals with Leishmania donovani. Nature of the assay: Antiprotozoal activity against Leishmania donovani MHOM/ET/67/L82 after 72 hrs by fluorimetry. The class given is functional, organism-based. The note with it: MHOM/ET/67/L82, 72 h.
Another assay concerns Neutrophil. Nature of the assay: Inhibition of PMA-stimulated superoxide production in human neutrophils assessed as respiratory burst. The class given is functional, cell-based.

One may read the IC50 as the concentration that inhibits the measured activity by half. For `COc1cc([C@@H]2c3cc4c(cc3[C@H](O)[C@H]3COC(=O)[C@H]23)OCO4)cc(OC)c1OC` [PODOFILOX], in the assay with L6, the IC50 amounted to 0.01 µM.

Turning to `CC(C)(C)OC(=O)NCCCCNCCCNC(=O)C(=O)c1c[nH]c2cc(Br)ccc12`, the inhibition entry (in assay [1]; with Saccharomyces cerevisiae; with Neutrophil) was “inactive” in each case. The IC50 in the assay on L6 is 25 µM; in the assay on Plasmodium falciparum, 8.4 µM; in assay [2] it was 9.9 µM; in the assay on Trypanosoma cruzi, 28 µM; with Leishmania donovani it was more than 160 µM.

For `O=C1NC(=O)C(c2c[nH]c3ccccc23)=C1c1cnc[nH]1`, the inhibition result in the assay on Neutrophil is “inactive”.

As for `O=C(Cn1ccnc1[N+](=O)[O-])NCc1ccccc1` [BENZNIDAZOLE], in the assay on Trypanosoma cruzi, the IC50 is 1.35 µM.

Regarding `Cn1cncc1C1=C(c2c[nH]c3cc(Br)ccc23)C(=O)NC1=O`, the inhibition entry in the assay on Neutrophil is “inactive”.

The compound `CCCCCCCCCCCCCCCCOP(=O)([O-])OCC[N+](C)(C)C` [MILTEFOSINE] returned a half-maximal inhibitory concentration (IC50) in the assay with Leishmania donovani of 0.52 µM.

Take `Cn1cncc1C1=C(c2c[nH]c3ccccc23)C(=O)NC1=O`: in the assay on Neutrophil, the inhibition result was “inactive”.

In the case of `O=C1NC(=O)C(c2c[nH]c3cc(Br)ccc23)=C1c1cnc[nH]1`, in the assay with Neutrophil, the inhibition entry is “inactive”.

For the compound `NCCCCNCCCNC(=O)C(=O)c1c[nH]c2ccccc12` [DIDEMNIDINE A], the inhibition result (in assay [1]; in the assay on Saccharomyces cerevisiae; in the assay on Neutrophil) was “inactive” in each case. For the same compound, the IC50 was 24 µM in the assay with L6; 41 µM with Plasmodium falciparum; 59 µM in assay [2]; 130 µM in the assay on Trypanosoma cruzi; more than 180 µM in the assay with Leishmania donovani.

For the compound `CC(C)(C)OC(=O)NCCCCNCCCNC(=O)C(=O)c1c[nH]c2ccccc12`, the inhibition entry (in assay [1]; with Saccharomyces cerevisiae; in the assay on Neutrophil) was “inactive” in each case. Besides, the half-inhibitory concentration (IC50) in the assay with L6 was 73 µM; in the assay on Plasmodium falciparum, 32 µM; in assay [2] it was 34 µM; in the assay with Trypanosoma cruzi it was 88 µM; in the assay with Leishmania donovani, more than 190 µM.

Consider `NCCCCNCCCNC(=O)C(=O)c1c[nH]c2cc(Br)ccc12` [DIDEMNIDINE B], for which the inhibition entry (in assay [1]; in the assay on Saccharomyces cerevisiae; with Neutrophil) was “inactive” each time. The IC50 in the assay with L6 was 25 µM; with Plasmodium falciparum, 15 µM; in assay [2], 44 µM; in the assay with Trypanosoma cruzi, 82 µM; in the assay with Leishmania donovani, more than 160 µM.
